Reference: ChEMBL document CHEMBL4002634, “Benzoflavones as cholesterol esterase inhibitors: Synthesis, biological evaluation and docking studies” (Bioorg Med Chem Lett, 2017)

Tests used:
[1] = target: T1, Carboxylic ester hydrolase (Sus scrofa, UniProt A0A286ZKB1); experiment: Inhibition of porcine cholesterol esterase using para-nitrophenyl butyrate as substrate after 5 mins in presence of sodium taurocholate by spectrophotometric method
T1 sequence (A0A286ZKB1 whole entry): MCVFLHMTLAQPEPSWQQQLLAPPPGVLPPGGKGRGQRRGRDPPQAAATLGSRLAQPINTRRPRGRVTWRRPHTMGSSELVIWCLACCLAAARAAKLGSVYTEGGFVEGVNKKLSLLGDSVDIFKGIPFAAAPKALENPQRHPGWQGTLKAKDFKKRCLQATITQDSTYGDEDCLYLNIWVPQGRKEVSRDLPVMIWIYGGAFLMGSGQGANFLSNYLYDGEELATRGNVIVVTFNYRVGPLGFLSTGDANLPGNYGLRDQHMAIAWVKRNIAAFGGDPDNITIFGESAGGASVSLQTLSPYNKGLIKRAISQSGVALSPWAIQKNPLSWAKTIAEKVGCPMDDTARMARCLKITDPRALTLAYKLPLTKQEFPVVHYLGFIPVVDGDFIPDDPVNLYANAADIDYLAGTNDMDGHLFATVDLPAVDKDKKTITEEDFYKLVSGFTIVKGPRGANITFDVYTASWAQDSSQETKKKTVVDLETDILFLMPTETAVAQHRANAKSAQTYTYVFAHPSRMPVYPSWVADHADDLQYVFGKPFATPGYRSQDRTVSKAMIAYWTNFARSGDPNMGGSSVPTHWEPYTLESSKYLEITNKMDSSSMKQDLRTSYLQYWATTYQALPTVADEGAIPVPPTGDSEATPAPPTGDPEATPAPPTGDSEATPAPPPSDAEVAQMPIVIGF

[2] = target: T2, Carboxylic ester hydrolase (Sus scrofa) (UniProt A0A286ZKB1); experiment: Inhibition of porcine cholesterol esterase at 25 nM using para-nitrophenyl butyrate as substrate after 5 mins in presence of sodium taurocholate by spectrophotometric method relative to control
T2 sequence (whole entry): T1 sequence (A0A286ZKB1 whole entry)

[3] = target: T2, Carboxylic ester hydrolase (Sus scrofa); experiment: Inhibition of porcine cholesterol esterase at 1 nM using para-nitrophenyl butyrate as substrate after 5 mins in presence of sodium taurocholate by spectrophotometric method relative to control
[4] = target: T2, Carboxylic ester hydrolase (Sus scrofa); experiment: Inhibition of porcine cholesterol esterase at 50 nM using para-nitrophenyl butyrate as substrate after 5 mins in presence of sodium taurocholate by spectrophotometric method relative to control
[5] = target: T2, Carboxylic ester hydrolase (Sus scrofa); experiment: Inhibition of porcine cholesterol esterase at 10 nM using para-nitrophenyl butyrate as substrate after 5 mins in presence of sodium taurocholate by spectrophotometric method relative to control
[6] = target: T2, Carboxylic ester hydrolase (Sus scrofa); experiment: Inhibition of porcine cholesterol esterase at 5 nM using para-nitrophenyl butyrate as substrate after 5 mins in presence of sodium taurocholate by spectrophotometric method relative to control

Row | Structure (SMILES) | IC50 ([1]; read-out: IC50) | inhibition [2] | inhibition [3] | inhibition [4] | inhibition [5] | inhibition [6] | IC50 [1]
1 | O=c1cc(-c2cc(F)ccc2F)oc2c1ccc1ccccc12 | 6.81 nM | 84% | 49% | 86% | 79% | 65% | 
2 | O=c1cc(-c2ccc(OC(F)(F)F)cc2)oc2c1ccc1ccccc12 |  | 42% | 20% | 46% | 35% | 26% | Not Active
3 | O=c1cc(-c2cccc(Cl)c2Cl)oc2c1ccc1ccccc12 | 10.8 nM | 82% | 50% | 84% | 78% | 64% | 
4 | O=c1cc(-c2ccccc2I)oc2c1ccc1ccccc12 | 16.1 nM | 79% | 46% | 80% | 78% | 64% | 
5 | O=c1cc(-c2c(F)cccc2C(F)(F)F)oc2c1ccc1ccccc12 | 38.9 nM | 59% | 31% | 64% | 52% | 48% | 
6 | CN(C)c1ccc(-c2cc(=O)c3ccc4ccccc4c3o2)cc1 |  | 21% | 9% | 23% | 18% | 12% | Not Active
7 | O=c1cc(-c2cccc(OC(F)(F)F)c2)oc2c1ccc1ccccc12 |  | 39% | 17% | 44% | 32% | 24% | Not Active
8 | O=c1cc(-c2ccccc2F)oc2c1ccc1ccccc12 | 3.22 nM | 84% | 50% | 89% | 81% | 65% | 
9 | O=c1cc(-c2ccccc2Br)oc2c1ccc1ccccc12 | 11 nM | 81% | 51% | 83% | 79% | 66% | 
10 | O=c1cc(-c2cc(C(F)(F)F)cc(C(F)(F)F)c2)oc2c1ccc1ccccc12 |  | 42% | 21% | 54% | 34% | 28% | Not Active
11 | CC(=O)Oc1ccc(-c2cc(=O)c3ccc4ccccc4c3o2)cc1 |  | 46% | 21% | 56% | 34% | 28% | Not Active
12 | Cc1ccc(-c2cc(=O)c3ccc4ccccc4c3o2)cc1 |  | 31% | 14% | 34% | 24% | 18% | Not Active
13 | CC(=O)Oc1cccc(-c2cc(=O)c3ccc4ccccc4c3o2)c1 |  | 47% | 23% | 55% | 36% | 27% | Not Active
14 | O=c1cc(-c2cccc(CCl)c2)oc2c1ccc1ccccc12 | 40 nM | 62% | 35% | 68% | 52% | 45% | 
15 | O=c1cc(-c2ccc(C(F)(F)F)cc2)oc2c1ccc1ccccc12 |  | 46% | 25% | 56% | 35% | 29% | Not Active
16 | O=c1cc(-c2ccc(F)cc2F)oc2c1ccc1ccccc12 | 1.43 nM | 91% | 51% | 97% | 80% | 66% | 
17 | O=c1cc(-c2cccc(Cl)c2)oc2c1ccc1ccccc12 | 6.99 nM | 83% | 51% | 85% | 80% | 68% | 
18 | O=c1cc(-c2c(F)cccc2F)oc2c1ccc1ccccc12 | 1.99 nM | 88% | 54% | 92% | 83% | 71% | 
19 | O=c1cc(-c2ccc(Br)cc2)oc2c1ccc1ccccc12 | 28.5 nM | 76% | 40% | 77% | 74% | 59% | 

Row | Structure (SMILES) | IC50 ([1]; read-out: IC50) | inhibition [2] | inhibition [3] | inhibition [4] | inhibition [5] | inhibition [6] | IC50 [1]
20 | O=c1cc(-c2ccccc2C(F)(F)F)oc2c1ccc1ccccc12 |  | 48% | 29% | 58% | 36% | 32% | Not Active
21 | O=c1cc(-c2ccc(C(F)(F)F)cc2F)oc2c1ccc1ccccc12 | 39 nM | 62% | 33% | 67% | 51% | 43% | 
22 | O=c1cc(-c2ccc(F)cc2C(F)(F)F)oc2c1ccc1ccccc12 | 39.1 nM | 55% | 28% | 63% | 44% | 38% | 
23 | O=c1cc(-c2cc(F)ccc2C(F)(F)F)oc2c1ccc1ccccc12 | 41.3 nM | 54% | 26% | 63% | 41% | 34% | 
24 | COc1ccc(-c2cc(=O)c3ccc4ccccc4c3o2)c(OC)c1 |  | 25% | 6% | 28% | 21% | 12% | Not Active
25 | O=c1cc(-c2cccc([N+](=O)[O-])c2)oc2c1ccc1ccccc12 | 25.1 nM | 75% | 36% | 78% | 71% | 51% | 
26 | COc1ccc(-c2cc(=O)c3ccc4ccccc4c3o2)cc1 |  | 28% | 11% | 31% | 22% | 18% | Not Active
27 | O=c1cc(-c2ccccc2)oc2c1ccc1ccccc12 [ALPHA-NAPHTHOFLAVONE] | 47.8 nM | 48% | 28% | 51% | 40% | 33% | 
28 | O=c1cc(-c2ccc([N+](=O)[O-])cc2)oc2c1ccc1ccccc12 | 37.3 nM | 69% | 35% | 70% | 68% | 47% | 
29 | O=c1cc(-c2cccc(C(F)(F)F)c2)oc2c1ccc1ccccc12 |  | 47% | 26% | 57% | 34% | 30% | Not Active
30 | O=c1cc(-c2cccc(F)c2)oc2c1ccc1ccccc12 | 5.24 nM | 83% | 50% | 87% | 79% | 64% | 
31 | O=c1cc(-c2ccc(F)cc2)oc2c1ccc1ccccc12 | 20.1 nM | 75% | 46% | 79% | 73% | 62% | 
32 | O=c1cc(-c2cccc(Br)c2)oc2c1ccc1ccccc12 | 26.1 nM | 76% | 43% | 78% | 73% | 57% | 
33 | O=c1cc(-c2ccc(I)cc2)oc2c1ccc1ccccc12 | 34.1 nM | 73% | 38% | 75% | 71% | 53% | 
34 | O=c1cc(-c2cc(F)cc(C(F)(F)F)c2)oc2c1ccc1ccccc12 | 43 nM | 54% | 27% | 62% | 41% | 38% | 
35 | COc1ccc(-c2cc(=O)c3ccc4ccccc4c3o2)cc1OC |  | 23% | 5% | 25% | 20% | 14% | Not Active
36 | O=c1cc(-c2cc([N+](=O)[O-])cc([N+](=O)[O-])c2)oc2c1ccc1ccccc12 | 30 nM | 75% | 41% | 76% | 72% | 54% | 
37 | O=c1cc(-c2ccc(F)c(F)c2)oc2c1ccc1ccccc12 | 14.1 nM | 79% | 48% | 81% | 76% | 68% | 
38 | O=c1cc(-c2ccc(CCl)cc2)oc2c1ccc1ccccc12 | 39.2 nM | 60% | 32% | 66% | 48% | 43% | 
